The source of these data is article PMC3617838 (Journal of Experimental Botany, 2013).

One series addresses T1, LTP3 (LTP3-GST) (Arabidopsis thaliana, UniProt Q9LLR7).
T1 sequence (Q9LLR7 24-115): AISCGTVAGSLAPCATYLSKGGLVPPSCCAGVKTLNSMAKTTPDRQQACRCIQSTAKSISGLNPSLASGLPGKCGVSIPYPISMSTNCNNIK
Briefly: fluorescence titration. Type of series: binding.

Series [1] has as its target T2, MYB96-His (Arabidopsis thaliana) (UniProt Q24JK1).
T2 sequence: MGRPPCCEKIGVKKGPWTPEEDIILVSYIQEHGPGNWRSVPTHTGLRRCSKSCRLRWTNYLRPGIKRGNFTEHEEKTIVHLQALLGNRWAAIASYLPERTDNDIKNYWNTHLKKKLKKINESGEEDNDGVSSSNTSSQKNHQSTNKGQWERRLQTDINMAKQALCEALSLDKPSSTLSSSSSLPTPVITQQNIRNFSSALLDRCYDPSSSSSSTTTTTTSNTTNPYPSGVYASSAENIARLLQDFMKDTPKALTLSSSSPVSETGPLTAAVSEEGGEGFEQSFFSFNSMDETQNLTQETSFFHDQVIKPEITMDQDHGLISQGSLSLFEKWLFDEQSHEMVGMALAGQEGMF
Briefly: EMSA. The settings on record: EMSA as in Shi et al. 2012; buffer, salt, pH and temperature not stated. A general note: Mobility shift assays separate free from complexed probe on a gel.

Take `Cc1ccc(Nc2ccc3cc(S(=O)(=O)O)ccc3c2)cc1` [TNS, 2-p-toluidinonaphthalene-6-sulphonate]: the affinity at LTP3 (LTP3-GST), expressed as Kd, was 9.8 ± 4.7 µM.

As for “CCACAGTTAATTAAAAGCAGATGAAAGGTGGTCCAATGGAAAAGGAGAATGTGATTGGGCTAGTTGGGAGAGTTCTGATGTCTAGTGTTGGGTACACGTGTCCGTCAGTTACACA (double strand) [LTP3 promoter XY]”, the binding entry in series [1] is given as “binds”.
